We go through 2 molecules from patent US20070049564A1 (Wyeth, priority 2005, published 2007).

Converted amounts (≈) assume the structure as drawn. Like-named read-outs stand apart in the source and are kept apart here.

The test system of one series is Staph. aureus Smith. Put plainly: In vitro activity (MIC) against Staph. aureus Smith. The series is classed as cell-based. To be noted: Staphylococcus aureus; Table 8.
Series [1] in a line: Pharmacokinetics in monkey, IV 2 mg/kg and oral 10 mg/kg. The series is classed as in vivo. To be noted: Oral - MONKEY 10 mg/kg.
Another series relates to Salmonella spp. GC 235. Put plainly: MIC, broth microdilution. To be noted: Salmonella, SPP.GC235, Salmonella spp. GC 235. A general note: In broth dilution the organism is exposed to a series of concentrations in liquid medium.
Another series deals with Salmonella spp. GC 566. In words: MIC, broth microdilution. To be noted: Salmonella, SPP.GC566, Salmonella spp. GC 566.
Another series relates to S. cholerasius GC 1355. In words: MIC, broth microdilution. To be noted: S. cholerasius GC 1355.
Another series relates to E. coli #311. Put plainly: In vivo activity (oral, iv; ED50) against E. coli in mice. To be noted: Escherichia coli. An excerpt:
. […] Smith and E. Coli #311 in mammals.
Results of the tests (MIC, oral and IV) are list in Table 7.

The test system of series [2] is E. coli, tet(A-D), efflux. In words: In vitro activity (MIC), strain groups.
Experimental: (§1) Antimicrobial susceptibility testing. The in vitro activities of the antibiotics are determined by the broth microdilution method as recommended by the National Committee for Clinical Laboratory Standards (NCCLS) (1). Mueller-Hinton II broth (MHBII)(BBL Cockeysville, Md.) is the medium employed in the testing procedures. Microtiter plates containing serial dilutions of each antimicrobial agent are inoculated with each organism to yield the appropriate density (10^5 CFU/ml) in a 100 μl final volume. The plates are incubated for 18-22 hours at 35° C. in ambient air.
Representative compounds were first incubated in mouse serum for an hour prior to the in vitro testing against a panel of selected gram-positive and gram-negative bacteria strains. All compounds were also pre-incubated in water for an hour prior to testing as control. Representative compounds of Formula I were incubated in human serum prior to MIC determination.
The subject of series [3] is E. coli, tet (M,S,O) Tet (M). In words: In vitro activity (MIC), strain groups. To be noted: Human Serum.
Experimental: as §1
(§2) Presented in Tables I-XIII are representative compounds of Formula I which were evaluated against a panel of 40 selected gram-positive and gram-negative bacteria strains by pre-incubation in water, mouse serum or human serum. Representative compounds were first incubated in mouse serum for an hour prior to the in vitro testing against a panel of selected gram-positive and gram-negative bacteria strains. All compounds were also pre-incubated in water for an hour prior to testing as control. Representative compounds of Formula I were incubated in human serum prior to MIC determination.
The subject of a further series is Enterococcus spp. Put plainly: In vitro activity (MIC), strain groups. Details: MIC: unit not given beside the values.
In a further series the test system is Streptococcus spp. In words: In vitro activity (MIC), strain groups. Also on record: MIC: unit not given beside the values.

Experimental for Enterococcus spp.: as §1, §2
Experimental for S. cholerasius GC 1355: as §1, §2
Experimental for Salmonella spp. GC 235: as §1
Representative compounds were first incubated in mouse serum for an hour prior to the in vitro testing against a panel of selected gram-positive and gram-negative bacteria strains. All compounds were also pre-incubated in water for an hour prior to testing as control.
Experimental for Salmonella spp. GC 566: as §1, §2
Experimental for Streptococcus spp.: as §1, §2

For the molecule `CCCCN(CC(=O)Nc1cc(N(C)C)c2c(c1O)C(=O)C1=C(O)[C@]3(O)C(=O)C(C(N)=O)=C(O)[C@@H](N(C)C)C3CC1C2)C(=O)OCOC(=O)C(C)C` (stereo partly drawn) [Example 1, ({[(2-{[(7S,10aS)-9-(aminocarbonyl)-4,7-bis(dimethylamino)-1,8,10a,11-tetrahydroxy-10,12-dioxo-5,5a,6,6a,7,10,10a,12-octahydrotetracen-2-yl]amino}-2-oxoethyl)(butyl)amino]carbonyl}oxy)methyl 2-methylpropanoate], the minimum inhibitory concentration (MIC) in the series with Staph. aureus Smith amounted to 4 µg/mL (≈ 5.48 µM); with Salmonella spp. GC 235 (Mouse Serum pre-incubation) it was 1 µg/mL (≈ 1.37 µM); against Salmonella spp. GC 235 (Water pre-incubation), 64 µg/mL (≈ 87.7 µM); in the series on Salmonella spp. GC 566 (Mouse Serum pre-incubation), 2 µg/mL (≈ 2.74 µM); against Salmonella spp. GC 566 (Water pre-incubation), 64 µg/mL (≈ 87.7 µM); against S. cholerasius GC 1355 (Mouse Serum pre-incubation) it was 8 µg/mL (≈ 11 µM). In the series on S. cholerasius GC 1355 (Water pre-incubation), this molecule displayed a minimal inhibitory concentration (MIC) greater than 64 µg/mL. Further, the Cmax result in series [1] was “no levels detected”.
Take `CCCN(CC(=O)Nc1cc(N(C)C)c2c(c1O)C(=O)C1=C(O)[C@]3(O)C(=O)C(C(N)=O)=C(O)[C@@H](N(C)C)[C@@H]3C[C@@H]1C2)C(=O)OCOC(=O)c1ccsc1` [Example 27, ({[(2-{[(5aR,6aS,7S,10aS)-9-(aminocarbonyl)-4,7-bis(dimethylamino)-1,8,10a,11-tetrahydroxy-10,12-dioxo-5,5a,6,6a,7,10,10a,12-octahydrotetracen-2-yl]amino}-2-oxoethyl)(propyl)amino]carbonyl}oxy)methyl thiophene-3-carboxylate]: the ED50 with E. coli #311 (single intravenous dose (SIV), read-out: ED50 E. coli #311 SIV) is greater than 2 mg/kg; in the series with E. coli #311 (single oral dose (SOD), read-out: ED50 E. coli #311 SOD), greater than 32 mg/kg. Moreover, the MIC in the series with Staph. aureus Smith is 0.12 µg/mL (≈ 0.159 µM); in [2] (Human Serum), 4-16; in series [2] (Mouse Serum), 0.5-1; in series [3], 4-8; against Enterococcus spp. (Human Serum) it was 0.5-2; in the series with Enterococcus spp. (Mouse Serum), 0.12-1. Moreover, the MIC against Enterococcus spp. (water) was 0.12-1; with Streptococcus spp. (Human Serum), 0.12-2; in the series on Streptococcus spp. (Mouse Serum), <0.06-0.12; against Streptococcus spp. (water), <0.06-0.12.

The MIC is the lowest concentration that inhibits growth of the organism. By ED50 is commonly meant the midpoint of the dose-response relation.
